From article PMC6792352, “Limited Chemical Structural Diversity Found to Modulate Thyroid Hormone Receptor in the Tox21 Chemical Library” (Environmental Health Perspectives, 2019)
Counter-ions that a name gives are not always drawn.

Experiment: in vitro
Conditions: rat, gh3-tre-luc cells, AC50 (uM) modified / 1000
`CN(C)CCCOc1nn(Cc2ccccc2)c2ccccc12` [Benzydamine hydrochloride] showed a CC50 at 24 h of 6.35 µM.
With `COc1cc(OC)c2ccc(=O)oc2c1` [5,7-Dimethoxy-2H-chromen-2-one] the CC50 at 24 h was > 90 µM.
In the case of `COc1ccc(C(=O)CCC(=O)O)c2ccccc12` [Menbutone], the CC50 at 24 h is reported as > 50 µM.
In the case of `COCCOC(=O)CC#N` [2-Methoxyethyl cyanoacetate], the CC50 at 24 h is reported as > 90 µM.
With `c1ccc(OCCOc2ccccc2)cc1` [1,2-Diphenoxyethane] the CC50 at 24 h was > 90 µM.
In the case of `CC1(C)N=C(N)N=C(N)N1c1ccc(Cl)cc1` [Cycloguanil hydrochloride], the CC50 at 24 h is reported as > 50 µM.
With `CCOC(=O)c1cccnc1` [Ethyl nicotinate] the CC50 at 24 h was > 50 µM.
With `CCCCCC/C(C=O)=C\c1ccccc1` [Hexyl cinnamic aldehyde] the CC50 at 24 h was > 90 µM.
For `O=c1cc(-c2ccccc2)oc2ccc3ccccc3c12` [5,6-Benzoflavone], the CC50 at 24 h was > 90 µM.
In the case of `O=C(O)c1cc(O)c2c(c1)C(=O)c1cccc(O)c1C2=O` [Rhein], the CC50 at 24 h is reported as > 90 µM.
For `CC(C(=O)O)c1ccc(C2CCCCC2)c2ccccc12` (stereo not drawn) [Quadrisol], the CC50 at 24 h was > 50 µM.
With `C[n+]1ccn(Cc2ccccc2)c1` [1-Benzyl-3-methylimidazolium chloride] the CC50 at 24 h was > 90 µM.
With `COC(=O)Nc1nc2ccc(C(=O)c3ccccc3)cc2[nH]1` [Mebendazole] the CC50 at 24 h was 0.337 µM.
With `O=c1cc(-c2ccccc2)oc2ccccc12` [Flavone] the CC50 at 24 h was > 90 µM.
With `CCCCCCCCn1sc(Cl)c(Cl)c1=O` [4,5-Dichloro-2-octyl-3(2H)-isothiazolone] the CC50 at 24 h was 12.7 µM.
For `CC(C)CCO` [Isopentyl alcohol], the CC50 at 24 h was > 90 µM.
Work on `CCN(Cc1cccc(S(=O)(=O)O)c1)c1ccc(C(=C2C=CC(=[N+](CC)Cc3cccc(S(=O)(=O)O)c3)C=C2)c2ccc(O)cc2S(=O)(=O)[O-])cc1` [FD&C Green No. 3] yielded a CC50 at 24 h of 41.3 µM.
For `N[C@@H](CCC(=O)N[C@@H](CS)C(=O)NCC(=O)O)C(=O)O` [Glutathione], the CC50 at 24 h was > 50 µM.
In the case of `C#CC(O)C(CC)CCCC` (stereo not drawn) [4-Ethyloct-1-yn-3-ol], the CC50 at 24 h is reported as > 90 µM.
Work on `N#CSCSc1nc2ccccc2s1` [2-(Thiocyanomethylthio)benzothiazole] yielded a CC50 at 24 h of 3.06 µM.
For `COc1cc(C(C)(C)C)c(O)c(C(C)(C)C)c1` [2,6-Di-tert-butyl-4-methoxyphenol], the CC50 at 24 h was 48.1 µM.
With `Cc1cc(=O)oc2cc(N(C)C)ccc12` [7-(Dimethylamino)-4-methylcoumarin] the CC50 at 24 h was > 90 µM.
In the case of `C=CC(=O)OCCOCC(CC)(COCCOC(=O)C=C)COCCOC(=O)C=C` [Trimethylolpropane ethoxylate triacrylate], the CC50 at 24 h is reported as 23.1 µM.
For `O=C(O)Cc1ccc(Cl)cc1Cl` [2,4-Dichlorophenylacetic acid], the CC50 at 24 h was > 90 µM.
For `CCN[C@@H](C)Cc1ccccc1` [(S)-(+)-N-Ethylamphetamine hydrochloride], the CC50 at 24 h was > 100 µM.
In the case of `FC(F)(F)C(Cl)Br` (stereo not drawn) [Halothane], the CC50 at 24 h is reported as > 90 µM.
In the case of `CC(C)NC(=O)NC(C)C` [1,3-Dipropan-2-ylurea], the CC50 at 24 h is reported as > 90 µM.
With `Cc1cccc(C(=O)O)c1O` [2-Hydroxy-3-methylbenzoic acid] the CC50 at 24 h was > 50 µM.
For `O=C(Nc1ccccc1-c1ccc(Cl)cc1)c1cccnc1Cl` [Boscalid], the CC50 at 24 h was > 100 µM.
In the case of `CC(=O)c1sc(C)nc1C` [5-Acetyl-2,4-dimethylthiazole], the CC50 at 24 h is reported as > 90 µM.
For `NC(=O)Nc1ccc(Cl)c(Cl)c1` [3,4-Dichlorophenylurea], the CC50 at 24 h was > 90 µM.
In the case of `CCc1ccc(Br)cc1` [1-Bromo-4-ethylbenzene], the CC50 at 24 h is reported as > 90 µM.
With `CCCCCCCCCCCCCCCCCCCCCC(=O)Nc1ccn([C@@H]2O[C@H](CO)[C@@H](O)[C@@H]2O)c(=O)n1` [Enocitabine] the CC50 at 24 h was > 50 µM.
For `CC(C)CCC[C@@H](C)[C@H]1CC(=O)C2=C3CC[C@H]4C[C@@H](O)CC[C@]4(C)[C@H]3CC[C@@]21C` [Colestolone], the CC50 at 24 h was > 50 µM.
For `O=C(O)c1ccc(Cl)c(Cl)c1` [3,4-Dichlorobenzoic acid], the CC50 at 24 h was > 90 µM.
In the case of `C=C(C)C(=O)OCCCC` [Butyl methacrylate], the CC50 at 24 h is reported as > 90 µM.
In the case of `c1ccccc1` [Benzene], the CC50 at 24 h is reported as > 90 µM.
In the case of `NC(=O)c1ccccc1O` [Salicylamide], the CC50 at 24 h is reported as > 90 µM.
For `NCCC(O)(P(=O)(O)O)P(=O)(O)O` [Pamidronic acid], the CC50 at 24 h was > 50 µM.
In the case of `Oc1ccc(-c2ccc(O)cc2)cc1` [4,4'-Biphenyldiol], the CC50 at 24 h is reported as > 90 µM.
For `CCCOC/C(=N\c1ccc(Cl)cc1C(F)(F)F)n1ccnc1` [Triflumizole], the CC50 at 24 h was 58.4 µM.
For `C#C[C@]1(O)CC[C@H]2[C@@H]3CCc4cc(O)ccc4[C@H]3CC[C@@]21C` [17alpha-Ethinylestradiol], the CC50 at 24 h was > 90 µM.
For `C=CC(C)(CCC=C(C)C)OC(=O)c1ccccc1N` (stereo not drawn) [Linalyl anthranilate], the CC50 at 24 h was > 90 µM.
For `C#C[C@]1(O)CC[C@H]2[C@@H]3CCc4cc(OC)ccc4[C@H]3CC[C@@]21C` [Mestranol], the CC50 at 24 h was > 90 µM.
With `Nc1cccc2c1CN(C1CCC(=O)NC1=O)C2=O` (stereo not drawn) [Lenalidomide] the CC50 at 24 h was > 50 µM.
In the case of `COC(C=C(C)CCC=C(C)C)OC` [1,1-Dimethoxy-3,7-dimethylocta-2,6-diene], the CC50 at 24 h is reported as > 90 µM.
Compound `NS(=O)(=O)C(F)(F)C(F)(F)C(F)(F)C(F)(F)C(F)(F)C(F)(F)C(F)(F)C(F)(F)F` [Perfluorooctanesulfonamide] has a CC50 at 24 h of 52.8 µM.
In the case of `CC1=CCC(=C(C)C)CC1` [Terpinolene], the CC50 at 24 h is reported as > 90 µM.
In the case of `CCCCOc1cc(C(=O)NCCN(CC)CC)c2ccccc2n1` [Dibucaine], the CC50 at 24 h is reported as 9.45 µM.
With `CCCC(=O)OCC` [Ethyl butyrate] the CC50 at 24 h was > 90 µM.
With `Cc1ccc(-n2nc(C(C)(C)C)cc2NC(=O)Nc2ccc(OCCN3CCOCC3)c3ccccc23)cc1` [Doramapimod] the CC50 at 24 h was > 50 µM.
For `Cc1cc(CC(=O)O)n(C)c1C(=O)c1ccc(Cl)cc1` [Sodium zomepirac], the CC50 at 24 h was > 90 µM.
With `CC(C)CC(=O)CC(C)C` [Diisobutyl ketone] the CC50 at 24 h was > 90 µM.
In the case of `C=CCSCC1Nc2cc(Cl)c(S(N)(=O)=O)cc2S(=O)(=O)N1` (stereo not drawn) [Althiazide], the CC50 at 24 h is reported as > 50 µM.
For `CN(C)CCOCCO` [2-[2-(Dimethylamino)ethoxy]ethanol], the CC50 at 24 h was > 90 µM.
For `CN(C)C=O` [N,N-Dimethylformamide], the CC50 at 24 h was > 90 µM.
For `c1ccc2occc2c1` [2,3-Benzofuran], the CC50 at 24 h was > 90 µM.
`CC(C)(C)[C@]1(O)CCN2C[C@H]3c4ccccc4CCc4cccc(c43)[C@@H]2C1` [Butaclamol hydrochloride] gave a CC50 at 24 h of 22.9 µM.
For `O=C1c2ccccc2C(=O)C1c1ccccc1` [Phenindione], the CC50 at 24 h was > 20 µM.
With `Cc1ccc2nc(-c3ccc(N)cc3)sc2c1S(=O)(=O)O` the CC50 at 24 h was > 50 µM.
With `CN(C)CCC=C1c2ccccc2COc2ccccc21` [Doxepin hydrochloride] the CC50 at 24 h was 13.5 µM.
With `CCCCCCC1CCC(=O)O1` (stereo not drawn) [gamma-Decanolactone] the CC50 at 24 h was > 90 µM.
In the case of `Cc1cc(C2CC2)nc(Nc2ccccc2)n1` [Cyprodinil], the CC50 at 24 h is reported as 74.9 µM.
In the case of `C/C=C/C(=O)CC` [4-Hexen-3-one], the CC50 at 24 h is reported as > 20 µM.
For `COc1ccc(Nc2ccc(OC)cc2)cc1` [4,4'-Dimethoxydiphenylamine], the CC50 at 24 h was 50.3 µM.
With `COc1cccc(OC)c1` [1,3-Dimethoxybenzene] the CC50 at 24 h was > 90 µM.
With `NS(=O)(=O)c1cc(-c2nnn[nH]2)c(NCc2cccs2)cc1Cl` [Azosemide] the CC50 at 24 h was > 50 µM.
For `Cc1cc(N)n(-c2ccccc2)n1` [3-Methyl-1-phenyl-1H-pyrazol-5-amine], the CC50 at 24 h was > 90 µM.
With `CC1CCc2nccnc21` (stereo not drawn) [5H-5-Methyl-6,7-dihydrocyclopenta[b]pyrazine] the CC50 at 24 h was > 90 µM.
For `O=C(O)CNC(=O)c1ccccc1` [Hippuric acid], the CC50 at 24 h was > 50 µM.
With `CCCCCCC(=O)O` [Heptanoic acid] the CC50 at 24 h was > 90 µM.
With `COC(=O)[C@H]1[C@H]2C[C@H]3c4[nH]c5ccccc5c4CCN3C[C@H]2CC[C@@H]1O` [Rauwolscine] the CC50 at 24 h was > 50 µM.
`CC(C)OC(=O)C(C)N(C(=O)c1ccccc1)c1ccc(F)c(Cl)c1` (stereo not drawn) [Flamprop-isopropyl] gave a CC50 at 24 h of 50 µM.
With `Cc1cccc(N)c1C` [2,3-Dimethylaniline] the CC50 at 24 h was > 90 µM.
Compound `O=C(NCC1CCCCN1)c1cc(OCC(F)(F)F)ccc1OCC(F)(F)F` (stereo not drawn) [Flecainide acetate] has a CC50 at 24 h of 42.2 µM.
For `Nc1ncnc2c1ncn2[C@H]1CC[C@@H](CO)O1` [2',3'-Dideoxyadenosine], the CC50 at 24 h was > 90 µM.
For `COC(=O)c1ccc(C=O)cc1` [Methyl 4-formylbenzoate], the CC50 at 24 h was > 90 µM.
For `C=CCCCCCCCCC(=O)OCC` [Ethyl undec-10-enoate], the CC50 at 24 h was > 90 µM.

Same assay, conditions: rat, gh3-tre-luc cells, AC50 (uM) modified / 1000, Tox21_110001=Tox21_112345; viability, 1 nM T3 present, 24 h
For `ClC1=C(Cl)C2(Cl)C(CBr)CC1(Cl)C2(Cl)Cl` (stereo not drawn) [Bromociclen], the CC50 at 24 h was 22.4 µM.

Same assay, conditions: rat, gh3-tre-luc cells, AC50 (uM) modified / 1000, Tox21_110001=Tox21_112610; viability, 1 nM T3 present, 24 h
For `CCOc1ccc2c3c1O[C@H]1[C@@H](O)C=C[C@H]4[C@@H](C2)N(C)CC[C@@]341` [Ethylmorphine], the CC50 at 24 h was > 50 µM.

Same assay, conditions: rat, gh3-tre-luc cells, AC50 (uM) modified / 1000, Tox21_110001=Tox21_200147; viability, 1 nM T3 present, 24 h
For `CCC(Cl)CCl` (stereo not drawn) [1,2-Dichlorobutane], the CC50 at 24 h was > 90 µM.

Same assay, conditions: rat, gh3-tre-luc cells, AC50 (uM) modified / 1000, Tox21_110001=Tox21_200566; viability, 1 nM T3 present, 24 h
For `FC(Cl)(Cl)C(F)(Cl)Cl` [1,2-Difluoro-1,1,2,2-tetrachloroethane], the CC50 at 24 h was > 100 µM.

Same assay, conditions: rat, gh3-tre-luc cells, AC50 (uM) modified / 1000, Tox21_110001=Tox21_202305; viability, 1 nM T3 present, 24 h
With `Cc1ccccc1O` [o-Cresol] the CC50 at 24 h was > 90 µM.

Same assay, conditions: rat, gh3-tre-luc cells, AC50 (uM) modified / 1000, Tox21_110001=Tox21_202864; viability, 1 nM T3 present, 24 h
In the case of `CCCCCCCCCBr` [n-Nonyl bromide], the CC50 at 24 h is reported as > 90 µM.

Same assay, conditions: rat, gh3-tre-luc cells, AC50 (uM) modified / 1000, Tox21_110001=Tox21_301750; viability, 1 nM T3 present, 24 h
`CC(C)(C)c1cc([N+](=O)[O-])cc(C(C)(C)C)c1O` [2,6-Di-tert-butyl-4-nitrophenol] gave a CC50 at 24 h of 11 µM.

Same assay, conditions: rat, gh3-tre-luc cells, AC50 (uM) modified / 1000, Tox21_110001=Tox21_301856; viability, 1 nM T3 present, 24 h
Work on `ClC1=C(Cl)C2(Cl)C(CBr)CC1(Cl)C2(Cl)Cl` (stereo not drawn) [Bromociclen] yielded a CC50 at 24 h of 36.9 µM.

Same assay, conditions: rat, gh3-tre-luc cells, AC50 (uM) modified / 1000, Tox21_110001=Tox21_302651; viability, 1 nM T3 present, 24 h
In the case of `C=CC(=O)OCCCCO` [4-Hydroxybutyl prop-2-enoate], the CC50 at 24 h is reported as 73.9 µM.
